Values of other authors, collected in patent US6492330B1, “Antiangiogenic drugs” (National Institute of Immunology, priority 1996, dated 2002).

How the values were obtained:
VIP-receptor complex = conditions: n=6; K-A is the dissociation constant of VIP-receptor complex; cited from earlier work
[1] = test system: vascular cells from explants of rat aorta; conditions: 10^−8M octreotide; cited from earlier work
[2] = test system: human umbelical vein endothelial cells (HUVEC); conditions: 10^−9M octreotide; cited from earlier work
aortic rings in fibrin = conditions: 10^−8M octreotide; cited from earlier work

Compound | pKa value for VIP-receptor complex (VIP-receptor complex) | inhibition of proliferation compared with controls [1] [%] | reduction of mean uptake of 3H-thymidine compared with controls [2] [%] | reduction of sprouting compared with controls (aortic rings in fibrin) [%]
vasoactive intestinal polypeptide [VIP] | 8.10+/−0.10 |  |  | 
C[C@@H](O)[C@@H]1NC(=O)[C@H](CCCCN)NC(=O)[C@@H](Cc2c[nH]c3ccccc23)NC(=O)[C@H](Cc2ccccc2)NC(=O)[C@@H](NC(=O)[C@H](N)Cc2ccccc2)CSSC[C@@H](C(=O)N[C@H](CO)[C@@H](C)O)NC1=O [octreotide] |  | 32.6 | 37 | 33.2
